These results are taken from patent publication US20040265847A1, “Method for treating Alzheimer's disease” (priority 1991, published 2004).

The subject of experiment [1] is human brain membrane-derived APP. Put plainly: trypsin digestion of human brain membrane-derived APP, Western blot with 22C11. The class given is biochemical. From the text: The proteolytic activity of trypsin (Boehringer, Mannheim) was studied to determine whether it was modulated by a range of doses of heparin (Sigma) and ZnCl2. […] Western blots for APP using the APP binding monoclonal antibody 22C11 were used to monitor the progression of the proteolytic reaction and to detect breakdown products.

Experiment [2] deals with T1, partially purified human serum APP (Homo sapiens, UniProt P05067).
T1 construct: from tissue; host or cells: human serum
The experiment in a line: partially purified serum APP binding to heparin-Sepharose. Here is the method:
40-60 ml of whole blood was allowed to clot for 3 hours in plain tubes at 20° C. The clotted blood was then incubated for 16 hours at 4° C., whereupon it was centrifuged at 1500 g for 15 minutes and the supernatant removed. The serum was further centrifuged at 1500 g for 15 minutes and the cell-free supernatant removed.
APP binding to heparin-Sepharose was also studied using partially purified APP preparations derived from human brain membranes (according to the method of Moir et al, 1992) or from human serum. Washed brain membrane extract or human serum was adjusted to a NaCl concentration of 350 mM and applied to a Q-Sepharose column (5 cm×5 cm), washed with 350 mM NaCl, 50 mM Tris-Hcl, pH 7.4 (250 ml [×2 for brain membrane extract]) and eluted with 1 M NaCl 50 mM Tris-HCl, pH 7.4 (200 ml at 5 ml/min). This procedure causes an 80-fold enrichment of APP in the peak protein fractions, which are then pooled (Moir et al, 1992). The eluate (20 ml) was desalted into 25 mM Tris, pH 7.4 (30 ml) using a G25 Sephadex column (2.6 cm×40 cm). 15 ml of the product was adjusted to 50 μM Zn^2+ with 2 mM ZnCl2, 50 mM Tris-Hcl, pH 7.4 and the other 15 ml was adjusted to the same volume with 50 mM Tris-HCl, pH 7.4. 10 ml of the deslated Q-Sepharose eluate, containing 6.7 mg protein, was applied to heparin-Sepharose (1.6 cm×5 cm) at 0.35 ml/min, washed with 100 ml of loading buffer, and eluted by a 0 to 1500 mM NaCl gradient (±50 μM Zn^2+) in 52.5 ml at a flow rate of 0.35 ml/min. […] The immunoreactive staining of the 130 kDa APP species seen on the blots was quantified by computer-assisted image capture reflectance densitometry (Bush et al., 1992). The 130 kDa reflectance signals on the blots were expressed as the ratio of the signal generated in one sample lane related to the 130 kDa APP reflectance reading of a sample of starting material present on every individual filter as an internal standard.

Another experiment deals with PC12 cells. Put plainly: Effect of extracellular zinc on cultured PC12 cells (APP by Western blot). The class given is cell-based. The following applies: 48 hr. How it is done:
10^6 PC12 cells were plated for 24 hr in the presence of Dulbecco's modified Eagle's medium (DMEM, N2) supplemented with 8% fetal calf serum (FCS). The medium was then removed and replaced with DMEM±2 to 50 μM ZnCl2 or another salt, and no FCS. Cells and media were harvested 48 hr later and aliquots of media, cell cytosol and membrane (following lysis and ultracentrifugation) were assayed for APP by Western blotting with mAb 22C11.

For experiment [3], the system named is human brain full-length APP. The experiment in a line: ^125I-APP binding to heparin-Sepharose. Here is the method: 100 kDa human brian full-length APP was iodinated by the Chloramine-T method. Iodinated APP (^125I-APP) was then separated from labelling reagents by Sephacryl G25 chromatography.
The column was then washed with 6 ml buffer 1 and the APP eluted with aliquots of high-NaCl buffers.

Another experiment has as its system APP. Put plainly: Effect of zinc loading upon rat brain APP. The class given is in vivo. The following applies: 120 mg/kg injected daily for four days. Here is the method:
16 week old Sprauge-Dawley male rats were injected daily for four days with 120 mg/kg ZnCl2 solution. The animals were then anaesthetized, bled by intracardiac puncture and their brains removed, homogenized and separated into membrane and soluble fractions following ultracentrifugation.

T1 sequence (P05067 18-687 limits assumed): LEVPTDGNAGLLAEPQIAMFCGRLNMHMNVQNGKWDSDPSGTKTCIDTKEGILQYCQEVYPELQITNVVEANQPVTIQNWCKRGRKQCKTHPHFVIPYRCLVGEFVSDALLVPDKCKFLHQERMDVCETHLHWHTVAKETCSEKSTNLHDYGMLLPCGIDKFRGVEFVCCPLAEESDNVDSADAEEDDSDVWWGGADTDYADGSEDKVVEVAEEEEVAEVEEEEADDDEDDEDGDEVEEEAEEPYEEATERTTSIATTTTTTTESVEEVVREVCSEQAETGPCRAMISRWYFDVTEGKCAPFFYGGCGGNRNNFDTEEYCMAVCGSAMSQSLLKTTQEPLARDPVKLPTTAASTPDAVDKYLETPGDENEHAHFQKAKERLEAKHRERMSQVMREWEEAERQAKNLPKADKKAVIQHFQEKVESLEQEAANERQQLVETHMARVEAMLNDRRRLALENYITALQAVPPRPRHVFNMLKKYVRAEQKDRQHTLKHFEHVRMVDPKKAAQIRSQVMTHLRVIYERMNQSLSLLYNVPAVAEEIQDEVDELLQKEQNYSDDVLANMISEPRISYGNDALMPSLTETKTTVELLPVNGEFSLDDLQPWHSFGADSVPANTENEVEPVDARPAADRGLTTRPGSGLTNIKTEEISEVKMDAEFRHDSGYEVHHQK

As for `[Cl-].[Cl-].[Zn+2]` [Zn^2+, ZnCl2], in experiment [1] (with heparin (1 μM)), the “Zn^2+ concentration that completely abolished the protective effect of heparin” value was “above 1 μM”. Further, in experiment [1] (without heparin, Zn^2+ up to 100 μM, EDTA 1 mM), the “effect on rate of APP proteolysis by trypsin” value is recorded as “had no effect”. In addition, the “effect on proportion of higher-affinity binding of serum-derived APP” value in experiment [2] was “did not increase the proportion of higher-affinity binding”. Moreover, the “increase in APP recovered from the NaCl elution” value in experiment [2] (50 μm Zn^2+) is listed as 10%. Besides, the “increase in amount of protein recovered” value in experiment [2] (50 μm Zn^2+, protein assay) turned out to be 12%. The “increase in APP released into the media” value in the experiment with PC12 cells (2 μM) came to 50%. Also, the “increase in APP released into the media (peak)” value in the experiment on PC12 cells (50 μM) was found to be 200%. For the same compound, in the experiment on PC12 cells, the “cytosolic APP” value is reported as “Smaller increases in cytosolic APP” and the “membrane associated APP levels” value is on record as “no change in membrane associated APP levels”. For the same compound, the “concentration at which increase in ^125I-APP binding to heparin reached a plateau” value in experiment [3] was determined as 75 µM. Further, in experiment [3] (50 μM Zn^2+), the “increase in ^125I-APP recovered from the 50-2000 mM NaCl elution fraction” value is on record as “approximately 3 fold” and the “increase in amount of brain APP binding to heparin” value stood at 50%. Moreover, in experiment [3] (100 μM Zn^2+), the “increase in ^125I-APP recovered from the 50-2000 mM NaCl elution fraction” value is on record as 4.5 fold. In addition, the “new APP band in plasma” value in the experiment with APP is “development of a novel 80 kDa band in plasma”. Besides, the “increase in the amounts of all forms of APP” value in the experiment with APP (plasma and brain preparations vs litter-mates) is given as 80%.
